# Assay results as given in patent publication US5843950A, “1,4-dihydropyridine compound and pharmaceutical composition containing the same” (Nikken Chemicals Co., Ltd., priority 1994, dated 1998).
# Like-named read-outs stand apart in the source and are kept apart here.
# Tests used:
# [1] = test system: TxA2 synthesis; assay: TxA2 synthesis inhibiting action test (human blood platelet microsomes); format: biochemical; details: prostaglandin H2
# Method: TxA2 Synthesis Inhibiting Action Test
# One ml of a buffer (20 mM Tris-HCl buffer, 1 mM EDTA, pH 7.5) containing human blood platelet microsomes (50 μg protein/ml) and the test compound (final concentration 10^-7 M) was agitated, then incubated at 0° C. for 30 minutes. To this was added prostaglandin H2 (100 ng/2 μl). This was incubated at 23° C. for 3 minutes to cause a reaction. Next, 1M hydrochloric acid was added to make the solution acidic and stop the reaction, then this was neutralized by 1M Tris-Base and centrifuged at 3000 rpm for 20 minutes. The amount of the TxB2 in the supernatant was measured by the EIA method (Cayman Co. kit).
# [2] = test system: KCl contraction in rat arteries (thoracic aorta); assay: Action easing KCl contraction in rat arteries (thoracic aorta ring); details: read-out: IC50 value (50% inhibitory concentration of hyperpotassium contraction), Test Example 7, Table 7, 37° C.
# Method: Action easing KCl contraction in rat arteries
# The specimen was stabilized for approximately 60 minutes, then a potassium chloride solution was added to the Magnus tube to give a final concentration of […]. The positive control compound or the compound of the present invention was cumulatively added from 1×10^-10 M to 1×10^-4 M when the contraction reaction occurring at that time reached equilibrium. The contraction force was recorded by an FD-pickup (made by Nihon Kodensha) via a polygraph (made by Nihon Kodensha).
# [3] = test system: VCR resistant murine leukemia (P388/VCR) cells; assay: In vivo effect for overcoming resistance to vincristine in VCR resistant murine leukemia (P388/VCR) bearing mice; set-up: species or system CDF1 male mice
# From the text: In vivo test of action suppressing proliferation of cancer cells by concomitant use with anti-cancer drug
# The number of survival days were found and the life prolonging rate (T/C) with respect to the controls was found. The effect in overcoming resistance to an anti-cancer drug (T/V) was found by the following formula.
# Effect for overcoming resistance to an anti-cancer drug (T/V) %
# =[Life prolonging rate (T/C) in case of concomitant use of VCR and the compound of the present invention]/[Life prolonging rate (T/C) in case of VCR alone]×100
# Using Compound 18 to Compound 22 and Compound 32, the same procedure was followed as in Test Example 5 to find the effect for overcoming resistance to an anti-cancer drug in vincristine (VCR) resistant murine leukemia cell bearing mice.
# [4] = test system: KCl contraction in rat arteries (thoracic aorta); assay: Action easing KCl contraction in rat arteries (thoracic aorta ring); details: read-out: IC50 value (50% inhibitory concentration of hypercalcemic contraction), Test Example 8, Table 8
# [5] = Test Example 5, Table 5, T/C with VCR + compound over T/C with VCR alone ×100
# [6] = Test Example 5, Table 5, VCR 100 μg/kg i.p. 5 days with compound 100 mg/kg (verapamil 60, nicardipine 75 mg/kg)
# [7] = Test Example 6, Table 6, same procedure as Test Example 5
smiles,measurement,setting,value
"CCCC1C(C(=O)OCCCc2cccnc2)=C(C)NC(C)=C1C(=O)OCCCc1cccnc1 [Compound 2, 2,6-dimethyl-4-n-propyl-1,4-dihydropyridine-3,5-dicarboxylic acid bis[3-(3-pyridyl)propyl]ester]",TxA2 synthesis inhibiting action Rate of suppression at 10^-7 mol (%),[1],72.0%
same,IC50,[2],> 30 µM
"CC1=C(C(=O)OCCCc2cccnc2)C(CC(C)(C)C)C(C(=O)OCCCc2cccnc2)=C(C)N1 [Compound 4, 2,6-dimethyl-4-(2,2-dimethylpropyl)-1,4-dihydropyridine-3,5-dicarboxylic acid bis[3-(3-pyridyl)propyl]ester]",TxA2 synthesis inhibiting action Rate of suppression at 10^-7 mol (%),[1],49.1%
same,Effect for overcoming resistance T/V (%),[3]; [5],136%
same,Life prolonging rate T/C (%),[3]; [6],145%
same,Mean days of survival,[3]; [6],14.5 days
same,IC50,[2],20.5 µM
"CC1=C(C(=O)OCCCc2cccnc2)C(C(C)c2ccccc2)C(C(=O)OCCCc2cccnc2)=C(C)N1 (centres unmarked) [Compound 7, 2,6-dimethyl-4-(1-phenylethyl)-1,4-dihydropyridine-3,5-dicarboxylic acid bis[3-(3-pyridyl)propyl]ester]",IC50,[2],13 µM
"CC1=C(C(=O)OCCCc2cccnc2)C(C2CCCCC2)C(C(=O)OCCCc2cccnc2)=C(C)N1 [Compound 8, 2,6-dimethyl-4-cyclohexyl-1,4-dihydropyridine-3,5-dicarboxylic acid bis[3-(3-pyridyl)propyl]ester]",TxA2 synthesis inhibiting action Rate of suppression at 10^-7 mol (%),[1],63.0%
"CCOC(=O)C1CC1C1C(C(=O)OCCCc2cccnc2)=C(C)NC(C)=C1C(=O)OCCCc1cccnc1 (centres unmarked) [Compound 9, 2,6-dimethyl-4-(2-ethoxycarbonylcyclopropyl)-1,4-dihydropyridine-3,5-dicarboxylic acid bis[3-(3-pyridyl)propy]ester]",IC50,[2],11.5 µM
"CC1=C(C(=O)OCCCc2cccnc2)C(C=Cc2ccco2)C(C(=O)OCCCc2cccnc2)=C(C)N1 [Compound 10, 2,6-dimethyl-4-(2-(2-furyl)ethenyl)-1,4-dihydropyridine-3,5-dicarboxylic acid bis[3-(3-pyridyl)propyl]ester]",IC50,[2],> 30 µM
"CC(C)=CCCC(C)CC1C(C(=O)OCCCc2cccnc2)=C(C)NC(C)=C1C(=O)OCCCc1cccnc1 (centres unmarked) [Compound 11, 2,6-dimethyl-4-(2,6-dimethyl-5-heptenyl)-1,4-dihydropyridine-3,5-dicarboxylic acid bis[3-(3-pyridyl)propyl]ester]",Effect for overcoming resistance T/V (%),[3]; [5],128%
same,Life prolonging rate T/C (%),[3]; [6],137%
same,Mean days of survival,[3]; [6],13.7 days
same,IC50,[2],> 30 µM
"CC1=C(C(=O)OCCCc2cccnc2)C(CCc2ccccc2)C(C(=O)OCCCc2cccnc2)=C(C)N1 [Compound 12, 2,6-dimethyl-4-(2-phenylethyl)-1,4-dihydropyridine-3,5-dicarboxylic acid bis[3-(3-pyridyl)propyl]ester]",IC50,[2],> 30 µM
"CCCCCCCCC1C(C(=O)OCCC#N)=C(C)NC(C)=C1C(=O)OCCCc1cccnc1 (centres unmarked) [Compound 14, 2,6-dimethyl-4-n-octyl-1,4-dihydropyridine-3,5-dicarboxylic acid 3-(2-cyanoethyl) ester, 5-[3-(3-pyridyl)propyl]ester]",IC50,[4],8.4 µM
"CCC(C)C1C(C(=O)OCCCc2cccnc2)=C(C)NC(C)=C1C(=O)OCCCc1cccnc1 (centres unmarked) [Compound 19, 2,6-dimethyl-4-(1-methylpropyl)-1,4-dihydropyridine-3,5-dicarboxylic acid bis[3-(3-pyridyl)propyl]ester]",Effect for overcoming resistance T/V (%),[3]; [7],173%
same,Life prolonging rate T/C (%),[3]; [7],176%
same,Mean days of survival,[3]; [7],18.8 days
"CCC(CC)C1C(C(=O)OCCCc2cccnc2)=C(C)NC(C)=C1C(=O)OCCCc1cccnc1 [Compound 20, 2,6-dimethyl-4-(1-ethylpropyl)-1,4-dihydropyridine-3,5-dicarboxylic acid bis[3-(3-pyridyl)propyl]ester]",Effect for overcoming resistance T/V (%),[3]; [7],150%
same,Life prolonging rate T/C (%),[3]; [7],148%
same,Mean days of survival,[3]; [7],15.8 days
same,IC50,[4],4.2 µM
"CCCCC(CC)C1C(C(=O)OCCCc2cccnc2)=C(C)NC(C)=C1C(=O)OCCCc1cccnc1 (centres unmarked) [Compound 21, 2,6-dimethyl-4-(1-ethylpentyl)-1,4-dihydropyridine-3,5-dicarboxylic acid bis[3-(3-pyridyl)propyl]ester]",Effect for overcoming resistance T/V (%),[3]; [7],138%
same,Life prolonging rate T/C (%),[3]; [7],140%
same,Mean days of survival,[3]; [7],15.0 days
same,IC50,[4],7 µM
"CC1=C(C(=O)OCCCc2cccnc2)C(CC(C)CC(C)(C)C)C(C(=O)OCCCc2cccnc2)=C(C)N1 (centres unmarked) [Compound 22, 2,6-dimethyl-4-(2,4,4-trimethylpentyl)-1,4-dihydropyridine-3,5-dicarboxylic acid bis[3-(3-pyridyl)propyl]ester]",Effect for overcoming resistance T/V (%),[3]; [7],150%
same,Life prolonging rate T/C (%),[3]; [7],148%
same,Mean days of survival,[3]; [7],15.8 days
same,IC50,[4],54 µM
"CCCCCCCCC1C(C(=O)OCCN2CCN(Cc3cccnc3)CC2)=C(C)NC(C)=C1C(=O)OCCN1CCN(Cc2cccnc2)CC1 [Compound 23, 2,6-dimethyl-4-n-octyl-1,4-dihydropyridine-3,5-dicarboxylic acid bis[2-(4-(3-pyridylmethyl)piperazin-1-yl)ethyl]ester]",Effect for overcoming resistance T/V (%),[3]; [5],123%
same,Life prolonging rate T/C (%),[3]; [6],132%
same,Mean days of survival,[3]; [6],13.2 days
"CC1=C(C(=O)OCCCc2cccnc2)C(C(C)C)C(C(=O)OCCN2CCN(Cc3cccnc3)CC2)=C(C)N1 (centres unmarked) [Compound 28, 2,6-dimethyl-4-isopropyl-1,4-dihydropyridine-3,5-dicarboxylic acid 3-[2-(4-(3-pyridylmethyl)piperazin-1-yl)ethyl]ester, 5-[3-(3-pyridyl)propyl]ester]",TxA2 synthesis inhibiting action Rate of suppression at 10^-7 mol (%),[1],60.2%
"CC1=C(C(=O)OCCCCc2cccnc2)C(C(C)C)C(C(=O)OCCCCc2cccnc2)=C(C)N1 [Compound 30, 2,6-dimethyl-4-isopropyl-1,4-dihydropyridine-3,5-dicarboxylic acid bis[4-(3-pyridyl)butyl]ester]",TxA2 synthesis inhibiting action Rate of suppression at 10^-7 mol (%),[1],69.7%
"CC1=C(C(=O)OCCCc2cccnc2)C(CC2CCCC(C)(C)C2)C(C(=O)OCCCc2cccnc2)=C(C)N1 (centres unmarked) [Compound 33, 2,6-dimethyl-4-(3,3-dimethylcyclohexylmethyl)-1,4-dihydropyridine-3,5-dicarboxylic acid bis[3-(3-pyridyl)propyl]ester]",IC50,[4],6.2 µM
"CC1=C(C(=O)OCCCc2cccnc2)CC(C(=O)OCCCc2cccnc2)=C(C)N1 [Control 1, reference compound]",TxA2 synthesis inhibiting action Rate of suppression at 10^-7 mol (%),[1],74.7%
"CC1=C(C(=O)OCc2cccnc2)C(c2ccccc2[N+](=O)[O-])C(C(=O)OCc2cccnc2)=C(C)N1 [Control 2, reference compound]",TxA2 synthesis inhibiting action Rate of suppression at 10^-7 mol (%),[1],77.9%
"CC1=C(C(=O)OCCCc2cccnc2)C(c2ccc(C(=O)O)cc2)C(C(=O)OCCCc2cccnc2)=C(C)N1 [Control 3, reference compound]",TxA2 synthesis inhibiting action Rate of suppression at 10^-7 mol (%),[1],37.6%
"COCCOC(=O)C1=C(C)NC(C)=C(C(=O)OC(C)C)C1c1cccc([N+](=O)[O-])c1 (centres unmarked) [Nimodipine, reference compound]",IC50,[2],0.08 µM
"O=C(O)/C=C/c1ccc(Cn2ccnc2)cc1 [OKY-046, reference compound]",TxA2 synthesis inhibiting action Rate of suppression at 10^-7 mol (%),[1],86.4%
"COc1ccc(CCN(C)CCCC(C#N)(c2ccc(OC)c(OC)c2)C(C)C)cc1OC (centres unmarked) [Verapamil, verapamil, reference compound]",Effect for overcoming resistance T/V (%),[3]; [5],127%
same,Life prolonging rate T/C (%),[3]; [6],136%
same,Mean days of survival,[3]; [6],13.6 days
same,IC50,[2],2.35 µM
